Laboratory results published in patent US20240383850A1, “INDOLE DERIVATIVES AS SEROTONERGIC AGENTS USEFUL FOR THE TREATMENT OF DISORDERS RELATED THERETO” (Mindset Pharma Inc., priority 2021, published 2024).
Where two headings read alike, the source gives them in different places.

Tests used:
C57BL/6J mice [1] = test: Mouse head twitch response (HTR); assay type: in vivo; settings: for duration of HT expression: at 10-30 mg/kg
Method: (§1) The effect of different doses of representative compounds of Formula I was evaluated on head-twitch response (HTR) and other behavioural responses indicative of serotonin syndrome as behavior-based models of psychedelic activity.
(§2) Male, C57BL/6J mice (body weight range 20-30 g) were dosed with the appropriate dose of test article, and following a 1-minute pre-treatment time, placed in individual observation chambers. Animals were visually assessed for the incidence head twitches continuously over a 1 hr period. Head twitches were defined as a rapid jerk of the head which was not elicited by an external tactile stimulus (Come and Pickering, Psychopharmacologia, 1967, 11(1): 65-78). Each head twitch was individually counted by a trained observer, and the data expressed as the mean±SEM of 6-10 mice per group. Mice were used in a single experiment only.

C57BL/6J mice [2] = test: Behavioural responses indicative of serotonin syndrome and motor activity, observed in the mouse head twitch study; assay type: in vivo
Method: as §1, §2

human 5-HT2A receptor [3] = target: T1, human 5-HT2A receptor (Homo sapiens, UniProt P28223); test: biochemical
T1 sequence (P28223 whole entry): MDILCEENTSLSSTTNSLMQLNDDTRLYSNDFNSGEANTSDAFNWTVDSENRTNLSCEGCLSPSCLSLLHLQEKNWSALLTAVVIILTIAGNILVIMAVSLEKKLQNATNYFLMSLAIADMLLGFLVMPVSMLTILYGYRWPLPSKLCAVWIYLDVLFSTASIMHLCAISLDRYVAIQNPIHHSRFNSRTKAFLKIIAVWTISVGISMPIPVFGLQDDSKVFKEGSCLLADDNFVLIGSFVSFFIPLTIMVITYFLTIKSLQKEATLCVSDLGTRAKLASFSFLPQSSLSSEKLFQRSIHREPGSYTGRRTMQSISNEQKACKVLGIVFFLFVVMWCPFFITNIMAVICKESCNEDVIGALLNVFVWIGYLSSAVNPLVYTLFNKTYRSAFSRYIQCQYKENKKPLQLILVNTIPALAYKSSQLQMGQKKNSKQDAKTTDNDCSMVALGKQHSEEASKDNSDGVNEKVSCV

[4] = target: human 5-HT2A (h5-HT2A) receptor (Homo sapiens, UniProt P28223); test: FLIPR calcium assay, human 5-HT2A, agonist mode
human 5-HT2A (h5-HT2A) receptor, sequence (P28223 whole entry): as above

human 5-HT2A receptor [5] = target: T1, human 5-HT2A receptor; settings: read-out: h5-HT2A IC50; competition with [3H]-ketanserin, cell membranes

SMILES: [2H]C([2H])(c1c[nH]c2ccc(OC)cc12)[C@H]1CCCN1C(=O)CCCCCCC/C=C\C/C=C\CCCCC [(R)—I-51]
- ED50 (C57BL/6J mice [1]; Mus musculus, male C57BL/6J mice, SC, head twitches counted over 1 hr): 2.8 mg/kg
- head twitch response expression (C57BL/6J mice [1]; mice, 1-60 mg/kg SC, compared to 5-MeO DMT): elicited a robust head twitch response expression
- duration of HT expression (C57BL/6J mice [1]; mice, SC): 0 to 30 min
- motor activity (C57BL/6J mice [2]; 1-30 mg/kg, not formally measured): did not reduce motor activity
- signs of 5-HT syndrome (whole body twitches, FPT, Straub tail) (C57BL/6J mice [2]; up to 60 mg/kg SC): did not induce signs of 5-HT syndrome

SMILES: COc1ccc2[nH]cc(CCN(C)C)c2c1 [Compound 5-MeO-DMT, 5-MeO-DMT, reference compound]
- ED50 head twitch response (C57BL/6J mice [1]; male C57BL/6J mice, SC, head twitches counted over 1 hr): 8 mg/kg
- duration of HT expression (C57BL/6J mice [1]; mice, SC): 0 to 20 min

SMILES: CCCCC/C=C\C/C=C\CCCCCCCC(=O)N(C)CCc1c[nH]c2ccccc12 [Compound I-1, (9Z,12Z)—N-(2-(1H-Indol-3-yl)ethyl)-N-methyloctadeca-9,12-dienamide]
- IC50 (human 5-HT2A receptor [3]): 10 to 30 µM
- EC50 [4]: > 30 µM

SMILES: CCCCC/C=C\C/C=C\CCCCCCCC(=O)N(C)CCc1c[nH]c2ccc(OC)cc12 [Compound I-21, (9Z,12Z)—N-(2-(5-Methoxy-1H-indol-3-yl)ethyl)-N-methyloctadeca-9,12-dienamide]
- IC50 (human 5-HT2A receptor [3]): 10 to 30 µM
- EC50 [4]: > 30 µM

SMILES: CCCCC/C=C\C/C=C\CCCCCCCC(=O)N1CCC[C@@H]1Cc1c[nH]c2ccccc12 [Compound I-46, (9Z,12Z)-1-((R)-2-((1H-Indol-3-yl)methyl)pyrrolidin-1-yl)octadeca-9,12-dien-1-one]
- IC50 (human 5-HT2A receptor [3]): > 30 µM
- EC50 [4]: > 30 µM

SMILES: CCCCC/C=C\C/C=C\CCCCCCCC(=O)N1CCC[C@@H]1Cc1c[nH]c2ccc(OC)cc12 [Compound I-55, (9Z,12Z)-1-((R)-2-((5-Methoxy-1H-indol-3-yl)methyl)pyrrolidin-1-yl)octadeca-9,12-dien-1-one]
- IC50 (human 5-HT2A receptor [3]): > 30 µM
- EC50 [4]: > 30 µM

SMILES: CCCCC/C=C\C/C=C\CCCCCCCC(=O)N1CCC(c2c[nH]c3ccc(OC)cc23)C1 (stereo not shown) [Compound I-81, (9Z,12Z)-1-(3-(5-Methoxy-1H-indol-3-yl)pyrrolidin-1-yl)octadeca-9,12-dien-1-one]
- IC50 (human 5-HT2A receptor [3]): > 30 µM
- EC50 [4]: > 30 µM

SMILES: CCCCC/C=C\C/C=C\CCCCCCCC(=O)N1CCC(c2c[nH]c3ccccc23)C1 (stereo not shown) [Compound I-84, (9Z,12Z)-1-(3-(1H-Indol-3-yl)pyrrolidin-1-yl)octadeca-9,12-dien-1-one]
- IC50 (human 5-HT2A receptor [3]): 10 to 30 µM
- EC50 [4]: > 30 µM

SMILES: CCCCC/C=C\C/C=C\CCCCCCCC(=O)N1CCC(c2c[nH]c3ccccc23)CC1 [Compound I-87, (9Z,12Z)-1-(4-(1H-Indol-3-yl)piperidin-1-yl)octadeca-9,12-dien-1-one]
- IC50 (human 5-HT2A receptor [3]): 10 to 30 µM
- EC50 [4]: > 30 µM

SMILES: CCCCC/C=C\C/C=C\CCCCCCCC(=O)N1CCC(c2c[nH]c3ccc(OC)cc23)CC1 [Compound I-88, (9Z,12Z)-1-(4-(5-Methoxy-1H-indol-3-yl)piperidin-1-yl)octadeca-9,12-dien-1-one]
- IC50 (human 5-HT2A receptor [3]): 10 to 30 µM
- EC50 [4]: > 30 µM

SMILES: CN(C)CCc1c[nH]c2ccccc12 [DMT]
- IC50 (human 5-HT2A receptor [5]): < 10 µM
- EC50 ([4]; read-out: h5-HT2A EC50, FLIPR calcium assay, agonist mode): < 10 µM
